According to US20240300932A1, “N-PHENYLIMINE DERIVATIVE AND PREPARATION METHOD AND USE THEREOF” (Guizhou University, priority 2023, published 2024):

Experiments:
Portulaca oleracea = assay: Post-emergence herbicidal activity test (stem and leaf spray, pot culture); format: in vivo; conditions: 3 weeks after spraying
In short: (§1)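 Graded 0–5 on fresh-weight growth control rate 3 weeks after a single spray-tower application at 10, 5 or 2.5 g/mu. Compounds in acetone with Tween 80 and methyl oleate synergist (1.5 liters/ha), applied to greenhouse weeds at 2- to 3-leaf stage.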

Abutilon theophrasti = assay: as above; format: in vivo; conditions: 3 weeks after spraying
In short: as §1

Setaria viridis = assay: as above; format: in vivo; conditions: 3 weeks after spraying
In short: as §1

Echinochloa crusgalli = assay: as above; format: in vivo; conditions: 3 weeks after spraying
In short: as §1

Amaranthus retroflexus = assay: as above; format: in vivo; conditions: 3 weeks after spraying
In short: as §1

Trifoliumre pensL. = assay: as above; format: in vivo; conditions: 3 weeks after spraying
In short: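 Pot-grown weeds in loam (pH 7), greenhouse at 20–30 °C, sprayed once post-emergence at the 2–3-leaf stage. Compound in acetone with Tween 80 plus methyl oleate oil (1.5 L/ha), applied at 10, 5 and 2.5 g/mu by spray tower. Effect scored 3 weeks after spraying, averaged over three repeats.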

Structure (SMILES)	melting point	Post-emergence herbicidal activity, P. oleracea (grade) (Portulaca oleracea; dosage 2.5 g/mu)	Post-emergence herbicidal activity, P. oleracea (grade) (Portulaca oleracea; dosage 5 g/mu)	Post-emergence herbicidal activity, P. oleracea (grade) (Portulaca oleracea; dosage 10 g/mu)	Post-emergence herbicidal activity, A. theophrasti (grade) (Abutilon theophrasti; dosage 2.5 g/mu)	Post-emergence herbicidal activity, A. theophrasti (grade) (Abutilon theophrasti; dosage 5 g/mu)	Post-emergence herbicidal activity, A. theophrasti (grade) (Abutilon theophrasti; dosage 10 g/mu)	Post-emergence herbicidal activity, S. viridis (grade) (Setaria viridis; dosage 2.5 g/mu)	Post-emergence herbicidal activity, S. viridis (grade) (Setaria viridis; dosage 5 g/mu)	Post-emergence herbicidal activity, S. viridis (grade) (Setaria viridis; dosage 10 g/mu)	Post-emergence herbicidal activity, E. crusgalli (grade) (Echinochloa crusgalli; dosage 2.5 g/mu)	Post-emergence herbicidal activity, E. crusgalli (grade) (Echinochloa crusgalli; dosage 5 g/mu)	Post-emergence herbicidal activity, E. crusgalli (grade) (Echinochloa crusgalli; dosage 10 g/mu)	Post-emergence herbicidal activity, A. retroflexus (grade) (Amaranthus retroflexus; dosage 2.5 g/mu)	Post-emergence herbicidal activity, A. retroflexus (grade) (Amaranthus retroflexus; dosage 5 g/mu)	Post-emergence herbicidal activity, A. retroflexus (grade) (Amaranthus retroflexus; dosage 10 g/mu)	Post-emergence herbicidal activity, Trifoliumre pensL. (grade) (Trifoliumre pensL.; dosage 2.5 g/mu)	Post-emergence herbicidal activity, Trifoliumre pensL. (grade) (Trifoliumre pensL.; dosage 5 g/mu)	Post-emergence herbicidal activity, Trifoliumre pensL. (grade) (Trifoliumre pensL.; dosage 10 g/mu)
O=C(COc1cc(N2C(=O)C3=C(CCCC3)C2=O)c(F)cc1Cl)c1ccc(F)cc1F [Compound C12, 2-(4-chloro-2-fluoro-5-(2-oxo-2-(2,4-difluorophenyl)ethoxy)phenyl)-4,5,6,7-tetrahydro-1H-isoindole-1,3(2H)-dione]	158 to 160 °C	5 (Grade 5: the growth control rate is greater than or equal to 85%)	5 (Grade 5: the growth control rate is greater than or equal to 85%)	5 (Grade 5: the growth control rate is greater than or equal to 85%)	5 (Grade 5: the growth control rate is greater than or equal to 85%)	5 (Grade 5: the growth control rate is greater than or equal to 85%)	5 (Grade 5: the growth control rate is greater than or equal to 85%)	2 (Grade 2: the growth control rate is greater than or equal to 20% and less than 40%)	3 (Grade 3: the growth control rate is greater than or equal to 40% and less than 60%)	4 (Grade 4: the growth control rate is greater than or equal to 60% and less than 85%)	1 (Grade 1: the growth control rate is greater than or equal to 5% and less than 20%)	2 (Grade 2: the growth control rate is greater than or equal to 20% and less than 40%)	3 (Grade 3: the growth control rate is greater than or equal to 40% and less than 60%)	5 (Grade 5: the growth control rate is greater than or equal to 85%)	5 (Grade 5: the growth control rate is greater than or equal to 85%)	5 (Grade 5: the growth control rate is greater than or equal to 85%)	5 (Grade 5: the growth control rate is greater than or equal to 85%)	5 (Grade 5: the growth control rate is greater than or equal to 85%)	5 (Grade 5: the growth control rate is greater than or equal to 85%)
COc1ccc(C(=O)COc2cc(N3C(=O)C4=C(CCCC4)C3=O)c(F)cc2Cl)cc1 [Compound C13, 2-(4-chloro-2-fluoro-5-(2-oxo-2-(4-methoxyphenyl)ethoxy)phenyl)-4,5,6,7-tetrahydro-1H-isoindole-1,3(2H)-dione]	151 to 153 °C	5 (Grade 5: the growth control rate is greater than or equal to 85%)	5 (Grade 5: the growth control rate is greater than or equal to 85%)	5 (Grade 5: the growth control rate is greater than or equal to 85%)	5 (Grade 5: the growth control rate is greater than or equal to 85%)	5 (Grade 5: the growth control rate is greater than or equal to 85%)	5 (Grade 5: the growth control rate is greater than or equal to 85%)	2 (Grade 2: the growth control rate is greater than or equal to 20% and less than 40%)	3 (Grade 3: the growth control rate is greater than or equal to 40% and less than 60%)	4 (Grade 4: the growth control rate is greater than or equal to 60% and less than 85%)	1 (Grade 1: the growth control rate is greater than or equal to 5% and less than 20%)	2 (Grade 2: the growth control rate is greater than or equal to 20% and less than 40%)	3 (Grade 3: the growth control rate is greater than or equal to 40% and less than 60%)	5 (Grade 5: the growth control rate is greater than or equal to 85%)	5 (Grade 5: the growth control rate is greater than or equal to 85%)	5 (Grade 5: the growth control rate is greater than or equal to 85%)	5 (Grade 5: the growth control rate is greater than or equal to 85%)	5 (Grade 5: the growth control rate is greater than or equal to 85%)	5 (Grade 5: the growth control rate is greater than or equal to 85%)
O=C(COc1cc(N2C(=O)C3=C(CCCC3)C2=O)c(F)cc1Cl)c1ccc(Br)cc1 [Compound C14, 2-(4-chloro-2-fluoro-5-(2-oxo-2-(4-bromophenyl)ethoxy)phenyl)-4,5,6,7-tetrahydro-1H-isoindole-1,3(2H)-dione]	183 to 185 °C	5 (Grade 5: the growth control rate is greater than or equal to 85%)	5 (Grade 5: the growth control rate is greater than or equal to 85%)	5 (Grade 5: the growth control rate is greater than or equal to 85%)	5 (Grade 5: the growth control rate is greater than or equal to 85%)	5 (Grade 5: the growth control rate is greater than or equal to 85%)	5 (Grade 5: the growth control rate is greater than or equal to 85%)	2 (Grade 2: the growth control rate is greater than or equal to 20% and less than 40%)	3 (Grade 3: the growth control rate is greater than or equal to 40% and less than 60%)	4 (Grade 4: the growth control rate is greater than or equal to 60% and less than 85%)	1 (Grade 1: the growth control rate is greater than or equal to 5% and less than 20%)	2 (Grade 2: the growth control rate is greater than or equal to 20% and less than 40%)	3 (Grade 3: the growth control rate is greater than or equal to 40% and less than 60%)	5 (Grade 5: the growth control rate is greater than or equal to 85%)	5 (Grade 5: the growth control rate is greater than or equal to 85%)	5 (Grade 5: the growth control rate is greater than or equal to 85%)	5 (Grade 5: the growth control rate is greater than or equal to 85%)	5 (Grade 5: the growth control rate is greater than or equal to 85%)	5 (Grade 5: the growth control rate is greater than or equal to 85%)
